Test results: patent US20120122903A1, “1-H-QUINAZOLINE-2, 4-DIONES FOR USE IN THE TREATMENT OF NEURONAL CEROID LIPOFUSCINOSIS” (priority 2009, published 2012)

How the values were obtained:
OF1 mice = experiment: Murine maximal electroshock test (MES test); type: in vivo, mouse; details: for MES-Test (1 h, po) % protection @ 50: p.o., percentage of protected mice, printed '@ 50' (mg/kg); for ED50: Mus musculus, po, pre-treatment time 1 h
Method: Compounds of the invention were tested in OF1 mice using the maximal electroshock test (MES Test) described in detail by Schmutz et al., Naunyn-Schmiedeberg's Arch Pharmacol 1990, 342, 61-66. Briefly, generalized tonic-clonic convulsions of the hind extremities were induced by passing electrical current through temporal electrodes (50 Hz, 18 mA, 0.2 s). […] 30 mg/kg carbamazepine was used as a positive control; mice were classified as protected by a compound if the duration of the seizure lasted only 3 second or less. Five mice were used for each treatment condition and the percentage of protected mice was used as readout (i.e. a compound could give 0%, 20%, 40%, 60%, 80% or 100% protection). Compounds of the invention were given at a dose of 50 mg/kg, p.o., 1 hour prior to induction of convulsions (i.e. “pre-treatment time−1 h”).
ED50 values (ED: effective dose) were calculated using GraphPad Prism, v4.02.
15 s after shock administration, mouse blood was collected for determination of compounds' blood exposure.

mouse = experiment: Oral activity in vivo (audiogenic mouse test and/or MES test); details: oral administration
Method: The oral bioavailability was tested using the audiogenic mouse test (Audiogenic seizures, R. L. Collins; Chapter 14, pages: 347-372. In: Experimental Models of Epilepsy; By: Pupura, Penry, Tower, Woodbury, Waiter, Raven Press, New York, 1972. Standard Book Number: 0-911216-26-X) and/or the MES test.

SMILES | MES-Test (1 h, po) % protection @ 50 (OF1 mice) | In vivo orally active (mouse) | ED50 (OF1 mice)
CC(C)c1cc2[nH]c(=O)n(NS(C)(=O)=O)c(=O)c2cc1-c1ccnn1C(C)C [Compound C-8, N-[7-Isopropyl-6-(2-isopropyl-2H-pyrazol-3-yl)-2,4-dioxo-1,4-dihydro-2H-quinazolin-3-yl]-methanesulfonamide] | 40% @ 50^ | yes | 
CS(=O)(=O)Nn1c(=O)[nH]c2cc(C(F)(F)F)c(-c3ccnn3O)cc2c1=O [Compound C-5, N-[6-(2-Hydroxy-2H-pyrazol-3-yl)-2,4-dioxo-7-trifluoromethyl-1,4-dihydro-2H-quinazolin-3-yl]-methanesulfonamide] |  | Yes | 
CC(O)c1cc2c(=O)n(NS(C)(=O)=O)c(=O)[nH]c2cc1C(F)(F)F (centres unmarked) [Compound A-1, N-[6-(1-Hydroxy-ethyl)-2,4-dioxo-7-trifluoromethyl-1,4-dihydro-2H-quinazolin-3-yl]-methanesulfonamide] |  | Yes | 64 mg/kg
CCc1cc2[nH]c(=O)n(NS(C)(=O)=O)c(=O)c2cc1-c1ccnn1C [Compound C-11, N-[7-Ethyl-6-(2-methyl-2H-pyrazol-3-yl)-2,4-dioxo-1,4-dihydro-2H-quinazolin-3-yl]-methanesulfonamide] |  | Yes | 6.1 mg/kg
CCC(OC(C)C)c1cc2c(=O)n(NS(C)(=O)=O)c(=O)[nH]c2cc1C(F)(F)F (centres unmarked) [Compound A-7, N-[6-(1-Isopropoxy-propyl)-2,4-dioxo-7-trifluoromethyl-1,4-dihydro-2H-quinazolin-3-yl]-methanesulfonamide] |  | Yes | 24.7 mg/kg
CCc1cc2[nH]c(=O)n(NS(C)(=O)=O)c(=O)c2cc1-c1ccnn1C(C)C [Compound C-6, N-[7-Ethyl-6-(2-isopropyl-2H-pyrazol-3-yl)-2,4-dioxo-1,4-dihydro-2H-quinazolin-3-yl]-methanesulfonamide] | 20% @ 50^ | yes | 
CC(OC1CCCC1)c1cc2c(=O)n(NS(C)(=O)=O)c(=O)[nH]c2cc1C(F)(F)F (centres unmarked) [Compound A-14, N-[6-(1-Cyclopentyloxy-ethyl)-2,4-dioxo-7-trifluoromethyl-1,4-dihydro-2H-quinazolin-3-yl]-methanesulfonamide] |  | yes | 
CCOC(CC)c1cc2c(=O)n(NS(C)(=O)=O)c(=O)[nH]c2cc1C(F)(F)F (centres unmarked) [Compound A-13, N-[6-(1-Ethoxy-propyl)-2,4-dioxo-7-trifluoromethyl-1,4-dihydro-2H-quinazolin-3-yl]-methanesulfonamide] |  | Yes | 
COCCC(O)c1cc2c(=O)n(NS(C)(=O)=O)c(=O)[nH]c2cc1C(F)(F)F (centres unmarked) [Compound A-18, N-[6-(1-Hydroxy-3-methoxy-propyl)-2,4-dioxo-7-trifluoromethyl-1,4-dihydro-2H-quinazolin-3-yl]-methanesulfonamide] |  | Yes | 
CS(=O)(=O)Nn1c(=O)[nH]c2cc(C(F)(F)F)c(C3CCCO3)cc2c1=O (centres unmarked) [Compound B-2, N-[2,4-Dioxo-6-(tetrahydro-furan-2-yl)-7-trifluoromethyl-1,4-dihydro-2H-quinazolin-3-yl]-methanesulfonamide] |  | Yes | 
COCCn1nccc1-c1cc2c(=O)n(NS(C)(=O)=O)c(=O)[nH]c2cc1C(F)(F)F [Compound C-4, N-{6-[2-(2-Methoxy-ethyl)-2H-pyrazol-3-yl]-2,4-dioxo-7-trifluoromethyl-1,4-dihydro-2H-quinazolin-3-yl}-methanesulfonamide] |  | Yes | 
CC(C)n1nccc1-c1cc2c(=O)n(NS(C)(=O)=O)c(=O)[nH]c2cc1C(C)(F)F [Compound C-16, N-[7-(1,1-difluoro-ethyl)-6-(2-isopropyl-2H-pyrazol-3-yl)-2,4-dioxo-1,4-dihydro-2H-quinazolin-3-yl]-methanesulfonamide] |  | Yes | 
